From patent US20250296937A1, “CYCLIC BISBENZYL TETRAHYDROISOQUINOLINE COMPOUND, AND PREPARATION METHOD THEREFOR AND USE THEREOF” (Shanghai Institute of Materia Medica, Chinesse Academy of …, priority 2021, published 2025) come the findings set out here.

The structures appear in SMILES notation. Entries after “also recorded” stand apart in the source; their conditions may differ. Where two headings read alike, the source gives them in different places.

Series [1] deals with T1, hNav1.5 sodium channel (Homo sapiens, UniProt Q14524). Put plainly: Nav1.5 sodium channel whole-cell membrane clamp in CHL cells.
Excerpt: (§3) Nav1.5: CHL cells stably expressing hNav1.5 sodium channel was used to record hNav1.5 sodium channel currents by whole-cell membrane clamp technique at room temperature. The glass microelectrodes were made from glass electrode blanks (BF150-86-10, Sutter) by pulling through a puller, and the tip resistance was about 2-5 MΩ after filling the electrode with internal fluid, and the glass microelectrodes were connected to Axopatch 200B (Molecular Devices) membrane clamp amplifier by inserting the glass microelectrodes into the amplifier probe. Clamp voltage and data recording were controlled and recorded by pClamp 10 software via a computer with a sampling frequency of 10 kHz and a filtering frequency of 2 kHz. After obtaining whole-cell recordings, the cells were clamped at −80 mV, given a hyperpolarizing voltage of 200 ms to −120 mV, and then depolarized to −20 mV for 20 ms to evoke a Nav1.5 current. This voltage stimulus was given every 10 s; after the hNav1.5 sodium current was determined to be stabilized (for at least 1 min), begins the dosing process. Concentrations of the sample to be tested were administered continuously starting from low test concentration, and each test concentration was given for 1 min to reach steady state of action or for a maximum of 3 min. A minimum of 3 cells (n≥3) were tested at each concentration of the sample to be tested, and a minimum of 2 cells (n≥2) were tested at each concentration of the positive control.
(§4) Extracellular fluid formulation (mM): 140 NaCl, 5 KCl, 1 CaCl2, 1.25 MgCl2, 10 HEPES and 10 Glucose, adjusting the pH to 7.4 with NaOH.
(§5) Intracellular fluid formulation (mM): 130 CsF, 10 NaCl, 10 EGTA and 10 HEPES, adjusting the pH to 7.2 with CsOH.
Another series relates to Vero E6 cells. Put plainly: Cytotoxicity test on Vero E6 cells (CCK8). It is filed as cell-based. The following applies: Vero E6 cells. As for the experimental part:
(§1) In this embodiment, the half toxicity concentration of each embodiment on Vero E6 cells was determined by CCK8 kit analysis (CC50).

Series [2] can be described thus: Cytotoxicity test on Vero E6 cells (CCK8). As to conditions: African green monkey; Vero E6 cells, CCK8 kit. It is filed as cell-based. As for the experimental part: as §1
Background: Formazan colour is commonly taken as a measure of viable cells.

In series [3] the test system is IL-6, IL-1β, CXCL9 mRNA in Raw 264.7 cells. Put plainly: mRNA levels of inflammatory indicators in LPS-induced inflammation model of Raw264.7 cells (Q-PCR). It is filed as cell-based. The following applies: 1 μg/ml LPS, 1 μM compound, 16 hours. On the procedure:
(§2) In this example, the effect of the compounds of the present invention on the inflammation level of the LPS-induced inflammation model of Raw 264.7 cells was analyzed by cell viability in combination with inflammatory factors; cell viability was analyzed by CCK-8 assay; and mRNA expression levels of inflammation-related indicators were detected by a real-time quantitative PCR (Q-PCR) method. Raw 264.7 cells were purchased from ATCC; CCK-8 kit was purchased from Meilunbio, item no. MA0218-3; LPS was purchased from Sigma, item no. L2630.
Experimental methods: first, 5*10^4 cells/well Raw 264.7 cells were placed in 12-well plates and incubated overnight. On the second day, 0.1% DMSO was added to the control cells, 1 μg/ml LPS as well as 0.1% DMSO was added to the model group, 1 μg/ml LPS as well as 1 μM of the compounds (oxyacanthine hydrochloride (oxy), 1, 2, tetrandrine (tet), 3, 4, 6, 58) was added to the treatment group, and the 12-well plates were sterilized and incubated in a constant temperature incubator for 16 hours. Cellular mRNA was extracted by lysis using Trizol (Yisheng, 10606ES60) and detected by real-time quantitative PCR after reverse transcription.

In series [4] the test system is LPS-induced acute inflammation. Kind of series: In vivo LPS-induced acute inflammation in mice (Q-PCR of lung/spleen, serum Elisa). The arrangement: species or system C57BL/6 mice. As to conditions: 30 mg/kg orally 2 h after 3 mg/kg LPS i.p.; samples 4 h after administration. On the procedure:
In this example, the effects of compounds on LPS-induced acute inflammation model in vivo were analyzed by the expression levels of inflammatory factors; the mRNA expression levels of tissue inflammation-related indicators were detected by the method of real-time quantitative PCR (Q-PCR), and the levels of inflammatory factors in serum were detected by the method of Elisa. C57BL/6 mice were purchased from SLAC, and the Elisa kits were purchased from Novusbio, with item no. 890860 for IL-6 and item no. 266117 for TNF-α. […]
Construction of inflammation model in mice: C57BL/6 mice were randomly divided into three groups: one control group, five experimental animals; one LPS modeling group, with five experimental animals; and two treatment groups, with five experimental animals. […] The blood was collected from the orbit of mice in each group at 4 h after the administration of the drug, and the spleen and lung tissues were collected after the euthanasia. mRNA was extracted from lung and spleen tissues respectively, and real-time quantitative PCR was performed after reverse transcription to assess the mRNA expression level of inflammation-related indicators, and Elisa assay was performed after serum extraction to assess the secretion level of inflammatory factors.

Series [5] has as its system A549 lung epithelial cells. Kind of series: Anti TGF-β1-induced fibrosis assay in A549 lung epithelial cells (microscopy, Western Blot). It is filed as cell-based. As to conditions: 10 ng/ml TGF-β1, 1 μM compound. On the procedure:
Cell injury was observed by microscopic observation; cell viability was analyzed by CCK-8 assay; and protein expression levels of fibrosis-related indicators were detected by Western Blot method. A549 cells were purchased from ATCC; CCK-8 kit was purchased from Meilunbio, item number MA0218-3; TGF-β1 was purchased from MCE, item number HY-P70543; primary antibodies: Collagen was purchased from ARG21965, item no. arigobio; α-smooth muscle actin was purchased from CST, item no. mAb #19245; VIMENTN was purchased from CST, item no. mAb #5741; GAPDH was purchased from Yeasen, item no. 30201ES20.
Experimental methods: first, 8000 cells/well A549 cells were placed in 96-well plates and incubated overnight. On the second day, 0.1% DMSO was added to the control cells, 10 ng/ml TGF-β1 as well as 0.1% DMSO was added to the model group, 10 ng/ml TGF-β1 as well as 1 μM of the compounds (oxy, 1, 2, tet, 3, 4, 6, 58) was added to the treatment group, and the 96-well plates were sterilized and incubated in a constant temperature incubator for 72 hours. Finally, cell injury and growth were observed using a microscope; the viability of the cells was detected by CCK-8 kit.

For series [6], the target named is novel coronavirus envelope protein (2-E) ion channel (Severe acute respiratory syndrome coronavirus 2, UniProt P0DTC4). Kind of series: Novel coronavirus envelope protein (2-E) ion channel activity test, planar lipid bilayer (BLM). It is filed as biochemical, SARS-CoV-2. As to conditions: room temperature, 1, 10, 50, 100 μM, read-out: Inhibition against 2-E ion channels IC50.

The next series has as its system HCoV OC43 virus. Put plainly: Inhibition against HCoV OC43 virus replication. It is filed as cell-based, human coronavirus HCoV OC43. The following applies: for EC50: Betacoronavirus 1, OC43.
Series [7] relates to Th1/Th17 differentiation of CD4+T cells. Kind of series: CD4+T cell in vitro differentiation assay (Th1 IFN-γ / Th17 IL-17A, flow cytometry). The arrangement: inhibitory effect on Th1/Th17 differentiation at lower concentration: dose or concentration left out as unconfirmed. The following applies: 72 h; for inhibitory effect on Th1/Th17 differentiation: 10 μM, IFN-γ/IL-17A by flow cytometry. (In general: In flow cytometry, cells or beads pass a laser one at a time.)
Description: CD4^+T cell isolation: CD4^+T cells were isolated from the spleens of 7-8 week old C57BL/6 mice using the Mouse CD4^+T Cell Sorting Kit (Dynabeads® Untouched™ Mouse CD4 Cells Isolation Kit, Invitrogen, Catalog nos: 11415D).
In vitro differentiation of CD4^+T cells: the isolated CD4^+T cells were inoculated into 96-well plates while different concentrations of compounds were added, and then corresponding cytokines and antibodies were added: anti-CD28 (2 μg/ml), anti-CD3 (2 μg/ml), Anti-IL-4 (10 μg/ml), IL-12 (10 ng/ml), Anti-IFN-γ (10 μg/ml), anti-IL-4 (10 μg/ml), IL-6 (30 ng/ml), TGF-β1 (3 ng/ml), IL-10 (10 ng/ml), IL-23 (10 ng/ml), and TNF-α (10 ng/ml). Cells were cultured in 5% CO2 at 37° C. in a cell culture chamber for 72 h. Cells were collected, stained intracellularly, analyzed by flow cytometry, and tested for IFN-γ/IL-17A content to assess the effect of compounds on CD4^+T differentiation into Th1/Th17 in vitro.

The next series deals with Raw 264.7 cells. Kind of series: Cell viability in LPS-induced inflammation model of Raw 264.7 cells (CCK-8). It is filed as cell-based. The following applies: 1 μg/ml LPS, 1 μM compound, 16 hours. On the procedure: as §2
Experimental methods: first, 8000 cells/well Raw 264.7 cells were placed in 96-well plates and incubated overnight. On the second day, 0.1% DMSO was added to the control cells, 1 μg/ml LPS as well as 0.1% DMSO was added to the model group, 1 μg/ml LPS as well as 1 μM of the compounds (oxyacanthine hydrochloride (oxy), 1, 2, tetrandrine (tet), 3, 4, 6, 58) was added to the treatment group, and the 96-well plates were sterilized and incubated in a constant temperature incubator for 16 hours. Finally, the viability of the cells was detected using the CCK-8 kit.

Series [8] addresses T1, hNav1.5 sodium channel.
Excerpt: as §3, §4, §5

T1 sequence (Q14524 whole entry): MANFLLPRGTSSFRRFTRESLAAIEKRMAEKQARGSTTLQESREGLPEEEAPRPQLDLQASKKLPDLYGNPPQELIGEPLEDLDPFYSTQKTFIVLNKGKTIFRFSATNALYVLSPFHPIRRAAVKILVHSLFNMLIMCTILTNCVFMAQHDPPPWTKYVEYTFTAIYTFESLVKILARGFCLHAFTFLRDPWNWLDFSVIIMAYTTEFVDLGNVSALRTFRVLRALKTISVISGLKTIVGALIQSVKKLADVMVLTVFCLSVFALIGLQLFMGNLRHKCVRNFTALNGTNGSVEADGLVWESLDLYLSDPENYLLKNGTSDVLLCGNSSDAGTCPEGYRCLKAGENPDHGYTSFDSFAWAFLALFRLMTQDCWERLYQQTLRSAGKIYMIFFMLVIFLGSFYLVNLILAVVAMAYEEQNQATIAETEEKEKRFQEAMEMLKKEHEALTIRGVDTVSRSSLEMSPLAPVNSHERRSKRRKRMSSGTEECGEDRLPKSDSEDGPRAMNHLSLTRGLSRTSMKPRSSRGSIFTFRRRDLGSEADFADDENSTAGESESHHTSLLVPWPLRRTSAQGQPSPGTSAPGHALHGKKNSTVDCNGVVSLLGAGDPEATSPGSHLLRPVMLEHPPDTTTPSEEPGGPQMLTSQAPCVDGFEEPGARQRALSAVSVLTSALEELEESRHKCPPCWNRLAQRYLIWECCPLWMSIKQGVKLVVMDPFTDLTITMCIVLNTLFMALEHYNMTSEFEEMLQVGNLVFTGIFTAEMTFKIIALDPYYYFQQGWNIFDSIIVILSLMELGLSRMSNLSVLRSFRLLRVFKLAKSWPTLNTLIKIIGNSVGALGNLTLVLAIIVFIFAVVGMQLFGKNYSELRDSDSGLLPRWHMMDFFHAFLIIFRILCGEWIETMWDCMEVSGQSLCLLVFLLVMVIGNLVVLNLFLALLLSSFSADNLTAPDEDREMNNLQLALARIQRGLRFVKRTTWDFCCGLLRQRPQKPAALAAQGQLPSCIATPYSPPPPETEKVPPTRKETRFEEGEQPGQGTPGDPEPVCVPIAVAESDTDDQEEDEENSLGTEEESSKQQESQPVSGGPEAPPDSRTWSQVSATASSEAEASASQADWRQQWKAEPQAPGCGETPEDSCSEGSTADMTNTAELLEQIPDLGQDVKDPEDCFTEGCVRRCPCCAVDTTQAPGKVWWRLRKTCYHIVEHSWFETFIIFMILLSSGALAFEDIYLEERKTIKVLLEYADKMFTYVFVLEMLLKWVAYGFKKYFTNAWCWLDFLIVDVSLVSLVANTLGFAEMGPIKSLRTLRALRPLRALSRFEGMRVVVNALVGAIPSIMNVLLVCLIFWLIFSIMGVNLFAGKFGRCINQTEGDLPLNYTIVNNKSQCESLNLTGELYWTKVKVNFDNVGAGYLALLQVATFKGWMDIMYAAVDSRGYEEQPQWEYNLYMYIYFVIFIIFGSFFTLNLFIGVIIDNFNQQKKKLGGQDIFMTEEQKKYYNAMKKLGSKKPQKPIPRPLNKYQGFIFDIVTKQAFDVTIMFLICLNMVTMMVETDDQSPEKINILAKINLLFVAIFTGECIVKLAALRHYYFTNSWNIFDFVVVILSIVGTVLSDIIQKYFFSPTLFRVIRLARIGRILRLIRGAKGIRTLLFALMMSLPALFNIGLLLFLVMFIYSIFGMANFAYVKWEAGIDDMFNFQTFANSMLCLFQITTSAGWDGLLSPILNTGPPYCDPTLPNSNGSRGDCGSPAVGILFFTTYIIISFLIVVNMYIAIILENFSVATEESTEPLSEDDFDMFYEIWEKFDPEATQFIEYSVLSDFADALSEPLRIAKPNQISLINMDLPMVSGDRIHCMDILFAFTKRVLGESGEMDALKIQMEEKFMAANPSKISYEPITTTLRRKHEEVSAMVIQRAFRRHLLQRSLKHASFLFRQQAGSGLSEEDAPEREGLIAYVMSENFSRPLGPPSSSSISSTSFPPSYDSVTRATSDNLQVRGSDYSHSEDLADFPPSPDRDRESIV
Sequence of novel coronavirus envelope protein (2-E) ion channel (P0DTC4 whole entry, looked up): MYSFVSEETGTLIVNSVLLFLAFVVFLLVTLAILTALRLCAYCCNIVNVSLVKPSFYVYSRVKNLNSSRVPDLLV

The term IC50 denotes the concentration that inhibits the measured activity by half. In general, EC50 refers to the concentration that produces a half-maximal response. Regarding `COc1cc2c3cc1Oc1c(OC)c(OC)cc4c1[C@H](Cc1ccc(cc1)Oc1cc(ccc1C(N)=O)C[C@H]3N(C)CC2)N(C)CC4` [Compound 4], on hNav1.5 sodium channel [1], the IC50 was more than 50 µM and the “activity against Nav1.5 channels” value is listed as “weakly active”. The “cytotoxicity on Vero E6 cells compared with oxyacanthine hydrochloride” value in the series on Vero E6 cells is given as “weaker cytotoxicity than oxyacanthine hydrochloride”. Moreover, the IC50 in [2] was more than 50 µM. For the same molecule, the “inhibition of inflammatory factors (IL-6, IL-1β, CXCL9 mRNA) in LPS-induced inflammation model” value in series [3] was “significantly inhibited inflammatory factors; also recorded: significant inhibition”. The “inflammatory factors and chemokines, mRNA levels and cytokine secretion levels, LPS-induced acute inflammation in mice” value in series [4] is listed as “significantly inhibited; also recorded: significant decrease”. In addition, the “alleviation of TGF-β1-induced fibrosis in A549 lung epithelial cells (Collagen1, α-SMA by WB)” value in series [5] was “alleviated; also recorded: partially alleviate fibrosis”. Besides, the IC50 in [6] is less than 1 µM. Further, in the series on HCoV OC43 virus, the “inhibition against human coronavirus HCoV OC43” value is “strong inhibition” and a half-maximal response (EC50) required 5 µM. In addition, in [7], the “inhibitory effect on Th1/Th17 differentiation” value is “strong inhibitory effect”. The “cell viability in LPS-induced inflammation model” value in the series on Raw 264.7 cells was “did not affect cell viability”.
For the molecule `CCCCNC(=O)Oc1ccc2cc1Oc1ccc(cc1)C[C@H]1c3c(cc(OC)c(OC)c3Oc3cc4c(cc3OC)CCN(C)[C@@H]4C2)CCN1C` [Compound 2], the half-maximal inhibitory concentration (IC50) at hNav1.5 sodium channel [1] is more than 10 µM. The “cytotoxicity on Vero E6 cells compared with oxyacanthine hydrochloride” value with Vero E6 cells was “weaker cytotoxicity than oxyacanthine hydrochloride”. The same molecule gave an IC50 in series [2] of 30 to 50 µM. Further, in [3], the “inhibition of inflammatory factors (IL-6, IL-1β, CXCL9 mRNA) in LPS-induced inflammation model” value is recorded as “significantly inhibited inflammatory factors; also recorded: significant inhibition”. In addition, at hNav1.5 sodium channel [8], the “activity against Nav1.5 channels” value is “weakly active”. Moreover, in [5], the “alleviation of TGF-β1-induced fibrosis in A549 lung epithelial cells (Collagen1, α-SMA by WB)” value is “alleviated; also recorded: partially alleviate fibrosis”. For the same molecule, the IC50 in [6] is less than 10 µM. In the series on HCoV OC43 virus, the “inhibition against human coronavirus HCoV OC43” value is given as “strong inhibition” and the midpoint of the response, the EC50, lay at 1.2 µM. Besides, in [7], the “inhibitory effect on Th1/Th17 differentiation” value is recorded as “strong inhibitory effect” and the “inhibitory effect on Th1/Th17 differentiation at lower concentration” value is “strong inhibitory effect”. For the same molecule, in the series on Raw 264.7 cells, the “cell viability in LPS-induced inflammation model” value is “did not affect cell viability”.
